# Patent publication US8952024B2, “Herbicidal pyrimidone derivatives” (E I du Pont de Nemours and Company, priority 2009, dated 2015)
# Key:
# Assay in all cases: Test D pre-/postemergence plant response
# Type in all cases: in vivo
# [1] = system: Russian thistle (Salsola kali)
# How it was run: (§1)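 Ratings come from greenhouse-grown weeds in loam and sand treated pre- or postemergence (postemergence height 2 to 18 cm). Evaluation after 14–21 days, visual, relative to controls, on a 0–100 control scale.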
# [2] = system: bermudagrass (Cynodon dactylon)
# How it was run: as §1
# [3] = system: black mustard (Brassica nigra)
# How it was run: as §1
# [4] = system: chickweed (common chickweed, Stellaria media); details: Postemergence
# How it was run: as §1
# [5] = system: field bindweed (Convolvulus arvensis)
# How it was run: as §1
# [6] = system: goosegrass (Eleusine indica)
# How it was run: as §1
# [7] = system: green foxtail (Setaria viridis)
# How it was run: as §1
# [8] = system: groundsel (common groundsel, Senecio vulgaris); details: Postemergence
# How it was run: as §1
# [9] = system: johnsongrass (Sorghum halepense)
# How it was run: as §1
# kochia (Kochia scoparia) = system: kochia (Kochia scoparia)
# How it was run: as §1
# [10] = system: mallow (common mallow, Malva sylvestris)
# How it was run: as §1
# [11] = system: morningglory (pitted morningglory, Ipomoea lacunosa)
# How it was run: as §1
# [12] = system: nutsedge (purple nutsedge, Cyperus rotundus)
# How it was run: as §1
# [13] = system: prickly sida (Sida spinosa)
# How it was run: as §1
# [14] = system: purslane (common purslane, Portulaca oleracea)
# How it was run: as §1
# [15] = system: sowthistle (common sowthistle, Sonchus oleraceous)
# How it was run: as §1
# [16] = system: spanishneedles (Bidens bipinnata)
# How it was run: as §1
# [17] = Postemergence, 16 g ai/ha, scale 0 to 100
# [18] = Postemergence, 31 g ai/ha, scale 0 to 100
# [19] = Postemergence, 62 g ai/ha, scale 0 to 100 (0 no effect, 100 complete control)
# [20] = Preemergence, 31 g ai/ha, scale 0 to 100 (0 no effect, 100 complete control)
# [21] = Preemergence, 125 g ai/ha, scale 0 to 100
# [22] = Postemergence, 31 g ai/ha, scale 0 to 100 (0 no effect, 100 complete control)
# [23] = Postemergence, 125 g ai/ha, scale 0 to 100 (0 no effect, 100 complete control)
# [24] = Preemergence, 16 g ai/ha, scale 0 to 100, 0 no effect, 100 complete control
# [25] = Preemergence, 62 g ai/ha, scale 0 to 100
# [26] = 125 g ai/ha, scale 0 to 100 (0 no effect, 100 complete control)
# [27] = 62 g ai/ha, scale 0 to 100 (0 no effect, 100 complete control)
# [28] = Postemergence, 250 g ai/ha, scale 0 to 100 (0 no effect, 100 complete control)
# [29] = 250 g ai/ha, scale 0 to 100 (0 no effect, 100 complete control)
smiles,measurement,setting,value
"O=C1CCCC(O)=C1C(=O)c1cnc(-c2ccccc2)n(C2CCCCC2)c1=O [Compound 128, 3-cyclohexyl-5-[(2-hydroxy-6-oxo-1-cyclohexen-1-yl)carbonyl]-2-phenyl-4(3H)-pyrimidinone]","Plant response rating, Russian Thistle",[1]; [17],0
same,"Plant response rating, Russian Thistle",[1]; [18],0
same,"Plant response rating, Russian Thistle",[1]; [19],20
same,"Plant response rating, Russian Thistle",[1]; [20],0
same,"Plant response rating, Russian Thistle",[1]; [21],100
same,"Plant response rating, Bermudagrass",[2]; [17],70
same,"Plant response rating, Bermudagrass",[2]; [22],70
same,"Plant response rating, Bermudagrass",[2]; [23],90
same,"Plant response rating, Bermudagrass",[2]; [19],80
same,"Plant response rating, Bermudagrass",[2]; [24],0
same,"Plant response rating, Bermudagrass",[2]; [20],0
same,"Plant response rating, Bermudagrass",[2]; [25],65
same,"Plant response rating, Bermudagrass",[2]; [21],75
same,"Plant response rating, Black Mustard",[3]; [17],95
same,"Plant response rating, Black Mustard",[3]; [22],95
same,"Plant response rating, Black Mustard",[3]; [23],95
same,"Plant response rating, Black Mustard",[3]; [19],95
same,"Plant response rating, Black Mustard",[3]; [24],60
same,"Plant response rating, Black Mustard",[3]; [20],60
same,"Plant response rating, Black Mustard",[3]; [25],85
same,"Plant response rating, Black Mustard",[3]; [21],95
same,"Plant response rating, Chickweed","[4]; 16 g ai/ha, scale 0 to 100",60
same,"Plant response rating, Chickweed",[4]; [26],70
same,"Plant response rating, Chickweed",[4]; [27],65
same,"Plant response rating, Field Bindweed",[5]; [17],50
same,"Plant response rating, Field Bindweed",[5]; [18],50
same,"Plant response rating, Field Bindweed",[5]; [23],65
same,"Plant response rating, Field Bindweed",[5]; [19],65
same,"Plant response rating, Field Bindweed",[5]; [24],0
same,"Plant response rating, Field Bindweed",[5]; [20],0
same,"Plant response rating, Field Bindweed",[5]; [25],35
same,"Plant response rating, Field Bindweed",[5]; [21],98
same,"Plant response rating, Goosegrass",[6]; [17],35
same,"Plant response rating, Goosegrass",[6]; [18],40
same,"Plant response rating, Goosegrass",[6]; [23],70
same,"Plant response rating, Goosegrass",[6]; [19],65
same,"Plant response rating, Goosegrass",[6]; [24],0
same,"Plant response rating, Goosegrass",[6]; [20],5
same,"Plant response rating, Goosegrass",[6]; [25],65
same,"Plant response rating, Goosegrass",[6]; [21],90
same,"Plant response rating, Foxtail, Green",[7]; [17],25
same,"Plant response rating, Foxtail, Green",[7]; [18],40
same,"Plant response rating, Foxtail, Green",[7]; [23],70
same,"Plant response rating, Foxtail, Green",[7]; [19],65
same,"Plant response rating, Foxtail, Green",[7]; [24],0
same,"Plant response rating, Foxtail, Green",[7]; [20],0
same,"Plant response rating, Foxtail, Green",[7]; [25],0
same,"Plant response rating, Foxtail, Green",[7]; [21],0
same,"Plant response rating, Groundsel","[8]; 16 g ai/ha, scale 0 to 100",100
same,"Plant response rating, Groundsel","[8]; 31 g ai/ha, scale 0 to 100",100
same,"Plant response rating, Groundsel",[8]; [26],100
same,"Plant response rating, Groundsel",[8]; [27],100
same,"Plant response rating, Johnsongrass",[9]; [17],35
same,"Plant response rating, Johnsongrass",[9]; [18],40
same,"Plant response rating, Johnsongrass",[9]; [23],65
same,"Plant response rating, Johnsongrass",[9]; [19],50
same,"Plant response rating, Johnsongrass",[9]; [24],0
same,"Plant response rating, Johnsongrass",[9]; [20],0
same,"Plant response rating, Johnsongrass",[9]; [25],15
same,"Plant response rating, Johnsongrass",[9]; [21],65
same,"Plant response rating, Kochia",kochia (Kochia scoparia); [17],20
same,"Plant response rating, Kochia",kochia (Kochia scoparia); [18],30
same,"Plant response rating, Kochia",kochia (Kochia scoparia); [23],40
same,"Plant response rating, Kochia",kochia (Kochia scoparia); [19],30
same,"Plant response rating, Kochia",kochia (Kochia scoparia); [24],0
same,"Plant response rating, Kochia",kochia (Kochia scoparia); [20],0
same,"Plant response rating, Kochia",kochia (Kochia scoparia); [25],50
same,"Plant response rating, Kochia",kochia (Kochia scoparia); [21],50
same,"Plant response rating, Mallow",[10]; [17],5
same,"Plant response rating, Mallow",[10]; [18],5
same,"Plant response rating, Mallow",[10]; [23],40
same,"Plant response rating, Mallow",[10]; [19],40
same,"Plant response rating, Mallow",[10]; [20],70
same,"Plant response rating, Mallow",[10]; [25],70
same,"Plant response rating, Mallow",[10]; [21],100
same,"Plant response rating, Morningglory",[11]; [17],65
same,"Plant response rating, Morningglory",[11]; [18],65
same,"Plant response rating, Morningglory",[11]; [23],70
same,"Plant response rating, Morningglory",[11]; [19],70
same,"Plant response rating, Morningglory",[11]; [20],0
same,"Plant response rating, Morningglory",[11]; [25],0
same,"Plant response rating, Morningglory",[11]; [21],90
same,"Plant response rating, Nutsedge, Purple",[12]; [17],0
same,"Plant response rating, Nutsedge, Purple",[12]; [18],10
same,"Plant response rating, Nutsedge, Purple",[12]; [23],50
same,"Plant response rating, Nutsedge, Purple",[12]; [19],35
same,"Plant response rating, Nutsedge, Purple",[12]; [24],0
same,"Plant response rating, Nutsedge, Purple",[12]; [20],0
same,"Plant response rating, Nutsedge, Purple",[12]; [25],0
same,"Plant response rating, Nutsedge, Purple",[12]; [21],70
same,"Plant response rating, Prickly Sida",[13]; [17],50
same,"Plant response rating, Prickly Sida",[13]; [18],60
same,"Plant response rating, Prickly Sida",[13]; [23],80
same,"Plant response rating, Prickly Sida",[13]; [19],65
same,"Plant response rating, Prickly Sida",[13]; [24],0
same,"Plant response rating, Prickly Sida",[13]; [20],0
same,"Plant response rating, Prickly Sida",[13]; [25],25
same,"Plant response rating, Prickly Sida",[13]; [21],30
same,"Plant response rating, Purslane",[14]; [17],30
same,"Plant response rating, Purslane",[14]; [18],30
same,"Plant response rating, Purslane",[14]; [23],50
same,"Plant response rating, Purslane",[14]; [19],30
same,"Plant response rating, Purslane",[14]; [24],0
same,"Plant response rating, Purslane",[14]; [20],0
same,"Plant response rating, Purslane",[14]; [25],100
same,"Plant response rating, Purslane",[14]; [21],100
same,"Plant response rating, Sowthistle",[15]; [17],100
same,"Plant response rating, Sowthistle",[15]; [18],100
same,"Plant response rating, Sowthistle",[15]; [23],100
same,"Plant response rating, Sowthistle",[15]; [19],100
same,"Plant response rating, Sowthistle",[15]; [24],80
same,"Plant response rating, Sowthistle",[15]; [20],80
same,"Plant response rating, Sowthistle",[15]; [21],100
same,"Plant response rating, Spanishneedles",[16]; [17],35
same,"Plant response rating, Spanishneedles",[16]; [18],50
same,"Plant response rating, Spanishneedles",[16]; [23],65
same,"Plant response rating, Spanishneedles",[16]; [19],50
same,"Plant response rating, Spanishneedles",[16]; [24],0
same,"Plant response rating, Spanishneedles",[16]; [20],0
same,"Plant response rating, Spanishneedles",[16]; [21],100
same,"Plant response rating, Spanishneedles","[16]; Preemergence, rate not given, scale 0 to 100, 0 no effect, 100 complete control",90
CCCn1c(-c2ccccc2)ncc(C(=O)C2=C(O)C3CCC(C3)C2=O)c1=O (centres unmarked) [Compound 226],"Plant response rating, Russian Thistle",[1]; [23],40
same,"Plant response rating, Russian Thistle",[1]; [28],70
same,"Plant response rating, Bermudagrass",[2]; [22],90
same,"Plant response rating, Bermudagrass",[2]; [23],95
same,"Plant response rating, Bermudagrass",[2]; [28],98
same,"Plant response rating, Bermudagrass",[2]; [19],95
same,"Plant response rating, Black Mustard",[3]; [22],65
same,"Plant response rating, Black Mustard",[3]; [23],80
same,"Plant response rating, Black Mustard",[3]; [28],85
same,"Plant response rating, Black Mustard",[3]; [19],80
same,"Plant response rating, Chickweed",[4]; [26],35
same,"Plant response rating, Chickweed",[4]; [29],85
same,"Plant response rating, Chickweed",[4]; [27],35
same,"Plant response rating, Field Bindweed",[5]; [23],70
same,"Plant response rating, Field Bindweed",[5]; [28],80
same,"Plant response rating, Field Bindweed",[5]; [19],70
same,"Plant response rating, Goosegrass",[6]; [23],70
same,"Plant response rating, Goosegrass",[6]; [28],75
same,"Plant response rating, Goosegrass",[6]; [19],70
same,"Plant response rating, Foxtail, Green",[7]; [23],80
same,"Plant response rating, Foxtail, Green",[7]; [28],98
same,"Plant response rating, Foxtail, Green",[7]; [19],70
same,"Plant response rating, Groundsel",[8]; [26],95
same,"Plant response rating, Groundsel",[8]; [29],100
same,"Plant response rating, Groundsel",[8]; [27],90
same,"Plant response rating, Johnsongrass",[9]; [23],80
same,"Plant response rating, Johnsongrass",[9]; [28],90
same,"Plant response rating, Johnsongrass",[9]; [19],80
same,"Plant response rating, Kochia",kochia (Kochia scoparia); [23],70
same,"Plant response rating, Kochia",kochia (Kochia scoparia); [28],70
same,"Plant response rating, Kochia",kochia (Kochia scoparia); [19],60
same,"Plant response rating, Mallow",[10]; [23],50
same,"Plant response rating, Mallow",[10]; [28],65
same,"Plant response rating, Mallow",[10]; [19],50
same,"Plant response rating, Morningglory",[11]; [23],70
same,"Plant response rating, Morningglory",[11]; [28],80
same,"Plant response rating, Morningglory",[11]; [19],70
same,"Plant response rating, Nutsedge, Purple",[12]; [23],0
same,"Plant response rating, Nutsedge, Purple",[12]; [28],5
same,"Plant response rating, Nutsedge, Purple",[12]; [19],0
same,"Plant response rating, Prickly Sida",[13]; [23],70
same,"Plant response rating, Prickly Sida",[13]; [28],75
same,"Plant response rating, Prickly Sida",[13]; [19],65
same,"Plant response rating, Purslane",[14]; [23],65
same,"Plant response rating, Purslane",[14]; [28],70
same,"Plant response rating, Purslane",[14]; [19],50
same,"Plant response rating, Sowthistle",[15]; [23],98
same,"Plant response rating, Sowthistle",[15]; [28],98
same,"Plant response rating, Sowthistle",[15]; [19],98
same,"Plant response rating, Spanishneedles",[16]; [23],75
same,"Plant response rating, Spanishneedles",[16]; [28],80
same,"Plant response rating, Spanishneedles",[16]; [19],75
